Experimental findings from patent publication US20210292330A1, “PYRROLIDINE-FUSED HETEROCYCLES” (Erasca, Inc., priority 2020, published 2021) are described below.

This experiment has as its target T1, KRAS 4B G12C protein (Homo sapiens, UniProt P01116, G12C).
T1 construct: This protein contained 188 amino acids in total, including an N-terminal 6-Histidine tag; made in house; host or cells: E. coli BL21
The experiment can be described thus: In vitro covalent adduct formation (CAF) assay by LC-MS. Conditions: compound 10 μM, protein 5 μM, 22° C., percentage of protein bound by the compound. In kind it is binding. In a few lines:
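Percent of protein covalently modified was quantified from intact-mass LC-MS ratios of free versus adducted protein, adducts within 1 Da of expected mass. Reactions: 10 μM compound, 5 μM His-TEV-KRAS 4B G12C (1-169) in TBS pH 7.4, 4% DMSO, 22° C., one hour, run in duplicate.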

Take `C=C(F)C(=O)N1CCN(c2nc(OC[C@@H]3CCCN3C)nc3c2CN(Cc2c(Cl)ccc(O)c2Cl)C3)C[C@@H]1CC#N` [1-322]: the “CAF (10 minutes/60 minutes) at 10 micromolar: 10 minutes” value (“CAF … at 10 micromolar: 10 minutes” below) was found to be 76% and the “CAF (10 minutes/60 minutes) at 10 micromolar: 60 minutes” value (from here on “CAF … at 10 micromolar: 60 minutes”) is reported as 94%.
The matching figures for `C=CC(=O)N1CCN(c2nc(OC[C@@H]3CCCN3C)nc3c2CN(Cc2ccccc2CC(F)(F)F)C3)C[C@@H]1CC#N` [1-225]: 77% and 93%.
The matching figures for `C=CC(=O)N1CCN(c2nc(OC[C@@H]3CCCN3C)nc3c2CN(C(C)c2ccccc2C(C)C)C3)C[C@@H]1CC#N` (stereo partly drawn) [1-189]: 57% and 61%.
The matching figures for `C=CC(=O)N1CCN(c2nc(OC[C@@H]3CCCN3C)nc3c2CN(Cc2c(Cl)cccc2OC)C3)C[C@@H]1CO` [1-107]: 0% and 3%.
For the compound `C=CC(=O)N1CCN(c2nc(OC[C@@H]3CCCN3C)nc3c2CN(Cc2cc(O)ccc2Cl)C3)C2COCC21` (stereo partly drawn) [1-315], the “CAF … at 10 micromolar: 10 minutes” value is listed as 41% and the “CAF … at 10 micromolar: 60 minutes” value was determined as 66%.
For `C=CC(=O)N1CCN(c2nc(OC[C@@H]3CCCN3C)nc3c2CN(Cc2cc(O)ccc2C(C)C)C3)C[C@@H]1CC#N` [1-185], in that order: 96% and 97%.
For `C=CC(=O)N1CCN(c2nc(OC[C@@H]3CCCO3)nc3c2CN(Cc2c(O)cccc2F)C3)C[C@@H]1CC#N` [1-95], in that order: 21% and 70%.
Turning to `C=CC(=O)N1CCN(c2nc(OC[C@@H]3CCCN3C)nc3c2CN(Cc2ccccc2C(C)(C)C)C3)C[C@@H]1CC#N` [1-187], the “CAF … at 10 micromolar: 10 minutes” value amounted to 94% and the “CAF … at 10 micromolar: 60 minutes” value came to 95%.
`C=CC(=O)N1CCN(c2nc(OC[C@@H]3CCCN3C)nc3c2CN(Cc2cc(OC(F)F)ccc2Cl)C3)C[C@@H]1CC#N` [1-53]: the “CAF … at 10 micromolar: 10 minutes” value was found to be 40% and the “CAF … at 10 micromolar: 60 minutes” value was found to be 86%.
The matching figures for `C=CC(=O)N1CCN(c2nc(OC[C@@H]3CCCN3C)nc3c2CN(Cc2c(Cl)c(F)cc4[nH]ncc24)C3)C[C@@H]1CC#N` [1-183]: 63% and 93%.
For `C=CC(=O)N1CCN(c2nc(OC[C@@H]3CCCN3C)nc3c2CN(Cc2c(F)cccc2OC(F)F)C3)C[C@@H]1CC#N` [1-58], in that order: 96% and 98%.
As to `C=CC(=O)N1CCN(c2nc(OC[C@@H]3CCCN3C)nc3c2CN(Cc2cc(Cl)ccc2F)C3)[C@@H](C)C1` [1-33], the “CAF … at 10 micromolar: 10 minutes” value is given as 0% and the “CAF … at 10 micromolar: 60 minutes” value worked out at 5%.
For `C=CC(=O)N1CCN(c2nc(OC[C@@H]3CCCN3C)nc3c2CN(Cc2cc(O)ccc2F)C3)[C@@H](C)C1` [1-50], in that order: 53% and 92%.
As to `C=C(F)C(=O)N1CCN(c2nc(OC[C@@H]3CCCN3C)nc3c2CN(C2CCc4cccc(Cl)c42)C3)C[C@@H]1CC#N` (stereo partly drawn) [1-154], the “CAF … at 10 micromolar: 10 minutes” value is reported as 52% and the “CAF … at 10 micromolar: 60 minutes” value stood at 82%.
The matching figures for `C=CC(=O)N1C2CC(=O)CC1CN(c1nc(OC[C@@H]3CCCN3C)nc3c1CN(Cc1cc(O)ccc1Cl)C3)C2` [1-328]: 14% and 39%.
Consider `C=CC(=O)N1CCN(c2nc(OC[C@@H]3CCCN3C)nc3c2CN(Cc2cc(F)ccc2C)C3)[C@@H](C)C1` [1-20], for which the “CAF … at 10 micromolar: 10 minutes” value stood at 0% and the “CAF … at 10 micromolar: 60 minutes” value was found to be 6%.
For the compound `C=CC(=O)N1CCN(c2nc(OC[C@@H]3CCCN3C)nc3c2CN(Cc2cccc(F)c2)C3)C[C@@H]1CC#N` [1-35], the “CAF … at 10 micromolar: 10 minutes” value was found to be 56% and the “CAF … at 10 micromolar: 60 minutes” value came out at 91%.
For `C=CC(=O)N1CCN(c2nc(OC[C@@H]3CCCN3C)nc3c2CN(Cc2cccc4nc[nH]c24)C3)C[C@@H]1CC#N` [1-201], in that order: 79% and 94%.
As for `C=CC(=O)N1CCN(c2nc(OC[C@@H]3CCCN3C)nc3c2CN(C2CCCc4cccc(Cl)c42)C3)C[C@@H]1CC#N` (stereo partly drawn) [1-72], the “CAF … at 10 micromolar: 10 minutes” value turned out to be 95% and the “CAF … at 10 micromolar: 60 minutes” value was 98%.
For `C=CC(=O)N1CCN(c2nc(OC[C@@H]3CCCN3C)nc3c2CN(Cc2c(Cl)cccc2OC(F)F)C3)C[C@@H]1C` [1-85], in that order: 0%/ 0% and 0%/ 0%.
Consider `C=CC(=O)N1C[C@H](C)N(c2nc(OC[C@@H]3CCCN3C)nc3c2CN(Cc2cc(O)ccc2C)C3)C[C@H]1C` [1-18], for which the “CAF … at 10 micromolar: 10 minutes” value is given as 21% and the “CAF … at 10 micromolar: 60 minutes” value is reported as 65%.
`C=CC(=O)N1CCN(c2nc(OC[C@@H]3CCCN3C)nc3c2CN(C2CCc4ccccc42)C3)C[C@@H]1Cn1ccnn1` (stereo partly drawn) [1-214]: the “CAF … at 10 micromolar: 10 minutes” value stood at 0% and the “CAF … at 10 micromolar: 60 minutes” value is 2%.
The matching figures for `C=CC(=O)N1CCN(c2nc(OC[C@@H]3CCCN3C)nc3c2CN(Cc2cc(OC)ccc2C)C3)C[C@@H]1CC#N` [1-6]: 65% and 93%.
On to `C=CC(=O)N1CCN(c2nc(OC[C@@H]3CCCN3C)nc3c2CN(C2CCc4ccccc42)C3)[C@H](C(N)=O)C1` (stereo partly drawn) [1-182], for which the “CAF … at 10 micromolar: 10 minutes” value stood at 7% and the “CAF … at 10 micromolar: 60 minutes” value was 30%.
Consider `C=CC(=O)N1CCN(c2nc(OC[C@@H]3CCCN3C)nc3c2CN(C2CCc4ccccc42)C3)[C@@H](C(N)=O)C1` (stereo partly drawn) [1-193], for which the “CAF … at 10 micromolar: 10 minutes” value is 7% and the “CAF … at 10 micromolar: 60 minutes” value worked out at 31%.
The matching figures for `C=CC(=O)N1CCN(c2nc(OC[C@@H]3C[C@H](F)CN3C)nc3c2CN(C2CCc4ccccc42)C3)C[C@@H]1CC#N` (stereo partly drawn) [1-128]: 52% and 63%.
The matching figures for `C=CC(=O)N1CCN(c2nc(Oc3cnc(N)nc3C3CC3)nc3c2CN(C2CCc4ccccc42)C3)C[C@@H]1CC#N` (stereo partly drawn) [1-207]: 16% and 50%.
For `C=CC(=O)N1CCN(c2nc(OCCN3CCOCC3)nc3c2CN(Cc2cc(O)ccc2C)C3)[C@@H](C)C1` [1-123], in that order: 0% and 2%.
Regarding `C=CC(=O)N1CCN(c2nc(OC[C@@H]3CCCN3C)nc3c2CN(Cc2c(Cl)ccc4ccccc24)C3)C[C@@H]1CC#N` [1-236], the “CAF … at 10 micromolar: 10 minutes” value was 94% and the “CAF … at 10 micromolar: 60 minutes” value is given as 95%.
Consider `C=CC(=O)N1CCN(c2nc(Oc3cccc4c3CCN(C)C4)nc3c2CN(C2CCc4ccccc42)C3)C[C@@H]1CC#N` (stereo partly drawn) [1-171], for which the “CAF … at 10 micromolar: 10 minutes” value worked out at 9% and the “CAF … at 10 micromolar: 60 minutes” value came out at 29%.
`C=CC(=O)N1CCN(c2nc(OC[C@@H]3CCCN3C)nc3c2CN(Cc2cc(OC)ccc2F)C3)C[C@@H]1CC#N` [1-39]: the “CAF … at 10 micromolar: 10 minutes” value was 51% and the “CAF … at 10 micromolar: 60 minutes” value amounted to 72%.
For `C=CC(=O)N1CCN(c2nc(OC[C@@H]3CCCN3C)nc3c2CN(Cc2c(O)cccc2Cl)C3)C[C@@H]1CC#N` [1-51], in that order: 98%/ 98% and 98%/ 98%.
As for `C=CC(=O)N1CCN(c2nc(OC[C@@H]3CCCN3C)nc3c2CN(C2CCc4ccccc42)C3)C[C@@H]1C(O)C(F)(F)F` (stereo partly drawn) [1-118], the “CAF … at 10 micromolar: 10 minutes” value is on record as 0%/ 0% and the “CAF … at 10 micromolar: 60 minutes” value turned out to be 0%/ 0%.
In the case of `C=CC(=O)N1CCN(c2nc(OC[C@@H]3CC(F)(F)CN3C)nc3c2CN(C2CCc4ccccc42)C3)C[C@@H]1CC#N` (stereo partly drawn) [1-133], the “CAF … at 10 micromolar: 10 minutes” value was determined as 84% and the “CAF … at 10 micromolar: 60 minutes” value was 90%.
Take `C=CC(=O)N1CC2COCC(C1)N2c1nc(OC[C@@H]2CCCN2C)nc2c1CN(Cc1cc(O)ccc1Cl)C2` [1-90]: the “CAF … at 10 micromolar: 10 minutes” value came out at 2% and the “CAF … at 10 micromolar: 60 minutes” value is on record as 12%.
Regarding `C=CC(=O)N1CC2(C1)CN(c1nc(OC[C@@H]3CCCN3C)nc3c1CN(C1CCc4ccccc41)C3)CCO2` (stereo partly drawn) [1-216], the “CAF … at 10 micromolar: 10 minutes” value came out at 18% and the “CAF … at 10 micromolar: 60 minutes” value is 54%.
For the compound `C=CC(=O)N1CCN(c2nc(OC[C@@H]3CCCN3C)nc3c2CN(Cc2cc(OC)ccc2C)C3)[C@@H](C)C1` [1-2], the “CAF … at 10 micromolar: 10 minutes” value is given as 0% and the “CAF … at 10 micromolar: 60 minutes” value worked out at 4%.
On to `C=CC(=O)N1CCN(c2nc(OC[C@@H]3CCCN3C)nc3c2CN(C2CC(C)(C)c4ccc(O)cc42)C3)C[C@@H]1CC#N` (stereo partly drawn) [1-194], for which the “CAF … at 10 micromolar: 10 minutes” value is reported as 32%/ 32% and the “CAF … at 10 micromolar: 60 minutes” value is on record as 32%/ 32%.
With `C=CC(=O)N1CCN(c2nc(OC[C@@H]3CCCN3C)nc3c2CN(Cc2ccccc2F)C3)C[C@@H]1CC#N` [1-102], the “CAF … at 10 micromolar: 10 minutes” value turned out to be 89% and the “CAF … at 10 micromolar: 60 minutes” value is listed as 96%.
